Data taken from paper PMC7391767, “Molecular mechanisms underlying menthol binding and activation of TRPM8 ion channel” (Nature Communications, 2020).
Values joined by “and” are separate entries in the source; they are usually repeats but may differ in a detail not shown here. Equal entries are not always repeated.

How the values were obtained:
Type in all cases: cell-based
Set-up in all cases: Shifts in ANAP emission, Ave: unit: nm
ANAP-incorporated TRPM8 [1] = target: T1, ANAP-incorporated TRPM8 (Mus musculus, UniProt Q8R4D5, C1006X); details: ANAP incorporation site C1006; average shift, menthol activated vs resting state
T1 construct: expressed in transfected cells; host or cells: HEK293 cells, co-transfected with the pANAP vector
Method: (§1) As fluorescence emission peak of ANAP shifts to a longer wavelength in more hydrophilic environment, we measured the shift in ANAP emission peak to report conformational changes. Fluorescence properties of ANAP may also be affected by other factors such as temperature and pH[31], so we performed our ANAP experiments always at room temperature (22 ± 1°C). To control for changes in solution pH, we added 3 mM HEPES in ANAP imaging solution to buffer the pH at 7.2. We genetically integrated ANAP into a specific site on TRPM8 with special tRNA and synthetase encoded by pANAP vector (Fig. 5d).
(§2) L-ANAP methyl ester was purchased from AsisChem. pANAP vector was purchased from Addgene. ANAP was incorporated into TRPM8 by introducing a TAG amber stop codon mutation as previously reported. Briefly, after co-transfection of both TRPM8 and pANAP vectors, ANAP was directly added to the culture medium to the final concentration of 20 µM. After 1–2 days, ANAP-containing culture medium was completely changed. Cells were further cultured in ANAP-free medium overnight before experiments.
(§3) ANAP fluorescence was excited by the Ar laser with a 375/28 excitation filter, a T400lp dichroic mirror, and a 435LP emission filter on an inverted fluorescence microscope (Nikon TE2000-U) using a ×40 oil-immersion objective (NA 1.3). Emission spectrum of ANAP was imaged with an Acton SpectraPro 2150i spectrograph in conjunction with an optiMOS CCD camera (Qimaging, USA). We determined the ANAP emission peak value by fitting the emission spectrum with a skewed Gauss distribution in Igor Pro version 6.1 (WaveMatrix), and then the difference in emission peak values measured in the absence and presence of menthol was reported as the shift of ANAP emission.

ANAP-incorporated TRPM8 [2] = target: T2, ANAP-incorporated TRPM8 (Mus musculus, UniProt Q8R4D5, D920X)
T2 construct: expressed in transfected cells; host or cells: HEK293 cells, co-transfected with the pANAP vector
Method: as §1, §2, §3

ANAP-incorporated TRPM8 [3] = target: T3, ANAP-incorporated TRPM8 (Mus musculus, UniProt Q8R4D5, I865X); details: ANAP incorporation site I865
T3 construct: expressed in transfected cells; host or cells: HEK293 cells, co-transfected with the pANAP vector
Method: as §1, §2, §3

ANAP-incorporated TRPM8 [4] = target: T4, ANAP-incorporated TRPM8 (Mus musculus, UniProt Q8R4D5, I962X); details: ANAP incorporation site I962, menthol activated vs resting state
T4 construct: expressed in transfected cells; host or cells: HEK293 cells, co-transfected with the pANAP vector
Method: as §1, §2, §3

ANAP-incorporated TRPM8 [5] = target: T5, ANAP-incorporated TRPM8 (Mus musculus, UniProt Q8R4D5, L774X)
T5 construct: expressed in transfected cells; host or cells: HEK293 cells, co-transfected with the pANAP vector
Method: as §1, §2, §3

ANAP-incorporated TRPM8 [6] = target: T6, ANAP-incorporated TRPM8 (Mus musculus, UniProt Q8R4D5, L864X); details: ANAP incorporation site L864
T6 construct: expressed in transfected cells; host or cells: HEK293 cells, co-transfected with the pANAP vector
Method: as §1, §2, §3

ANAP-incorporated TRPM8 [7] = target: T7, ANAP-incorporated TRPM8 (Mus musculus, UniProt Q8R4D5, L939X)
T7 construct: expressed in transfected cells; host or cells: HEK293 cells, co-transfected with the pANAP vector
Method: as §1, §2, §3

ANAP-incorporated TRPM8 [8] = target: T8, ANAP-incorporated TRPM8 (Mus musculus, UniProt Q8R4D5, N789X); details: ANAP incorporation site N789; average shift, menthol activated vs resting state
T8 construct: expressed in transfected cells; host or cells: HEK293 cells, co-transfected with the pANAP vector
Method: as §1, §2, §3

ANAP-incorporated TRPM8 [9] = target: T9, ANAP-incorporated TRPM8 (Mus musculus, UniProt Q8R4D5, N852X); details: ANAP incorporation site N852
T9 construct: expressed in transfected cells; host or cells: HEK293 cells, co-transfected with the pANAP vector
Method: as §1, §2, §3

ANAP-incorporated TRPM8 [10] = target: T10, ANAP-incorporated TRPM8 (Mus musculus, UniProt Q8R4D5, S921X); details: ANAP incorporation site S921
T10 construct: expressed in transfected cells; host or cells: HEK293 cells, co-transfected with the pANAP vector
Method: as §1, §2, §3

ANAP-incorporated TRPM8 [11] = target: T11, ANAP-incorporated TRPM8 (Mus musculus, UniProt Q8R4D5, T922X)
T11 construct: expressed in transfected cells; host or cells: HEK293 cells, co-transfected with the pANAP vector
Method: as §1, §2, §3

ANAP-incorporated TRPM8 [12] = target: T12, ANAP-incorporated TRPM8 (Mus musculus, UniProt Q8R4D5, V791X)
T12 construct: expressed in transfected cells; host or cells: HEK293 cells, co-transfected with the pANAP vector
Method: as §1, §2, §3

ANAP-incorporated TRPM8 [13] = target: T13, ANAP-incorporated TRPM8 (Mus musculus, UniProt Q8R4D5, V876X); details: ANAP incorporation site V876
T13 construct: expressed in transfected cells; host or cells: HEK293 cells, co-transfected with the pANAP vector
Method: as §1, §2, §3

ANAP-incorporated TRPM8 [14] = target: T14, ANAP-incorporated TRPM8 (Mus musculus, UniProt Q8R4D5, W954X); details: ANAP incorporation site W954, menthol activated vs resting state
T14 construct: expressed in transfected cells; host or cells: HEK293 cells, co-transfected with the pANAP vector
Method: as §1, §2, §3

ANAP-incorporated TRPM8 [15] = target: T15, ANAP-incorporated TRPM8 (Mus musculus, UniProt Q8R4D5, Y924X); details: ANAP incorporation site Y924
T15 construct: expressed in transfected cells; host or cells: HEK293 cells, co-transfected with the pANAP vector
Method: as §1, §2, §3

[16] = average shift, menthol activated vs resting state
[17] = menthol activated vs resting state, single measurement

Question: What does the source list for CC(C)[C@@H]1CC[C@@H](C)C[C@H]1O [menthol, (−)-menthol]?
Answer: Shifts_ave (ANAP-incorporated TRPM8 [1]): 1.09 nm; Shifts in ANAP emission, Ave (ANAP-incorporated TRPM8 [2]; ANAP at D920): 3.47; Shifts_ave (ANAP-incorporated TRPM8 [2]; ANAP incorporation site D920, average shift, menthol activated vs resting state): 3.47 nm; Emission Peak at menthol activated state (ANAP-incorporated TRPM8 [2]; ANAP incorporation site D920, single measurement): 488.12 nm and 482.56 nm; Shifts_ave (ANAP-incorporated TRPM8 [3]; [16]): 0.00167 nm; Emission Peak at menthol activated state (ANAP-incorporated TRPM8 [3]; single measurement): 471.49 nm and 482.04 nm and 478.09 nm and 488.42 nm and 478.8 nm and 481.12 nm; Shifts_ave (ANAP-incorporated TRPM8 [4]; average shift): 1.07 nm; Shifts in emission (ANAP-incorporated TRPM8 [4]; single measurement): 1.34 nm and 1.4 nm and 0.73 nm and 0.79 nm; Shifts in ANAP emission, Ave (ANAP-incorporated TRPM8 [5]; ANAP at L774): 2.36; Shifts_ave (ANAP-incorporated TRPM8 [5]; ANAP incorporation site L774, average shift, menthol activated vs resting state): 2.3625 nm; Emission Peak at menthol activated state (ANAP-incorporated TRPM8 [5]; ANAP incorporation site L774, single measurement): 484.17 nm and 483.39 nm and 483.98 nm and 484.46 nm and 486.95 nm and 482.2 nm and 480.79 nm; Shifts_ave (ANAP-incorporated TRPM8 [6]; [16]): 1.37 nm; Shifts in emission (ANAP-incorporated TRPM8 [6]; [17]): 1.34 nm and 1.42 nm and 1.82 nm and 1.04 nm and 1.21 nm; Emission Peak at menthol activated state (ANAP-incorporated TRPM8 [6]; single measurement): 481.75 nm and 488.11 nm and 492.24 nm and 485.58 nm and 489.77 nm; Shifts in ANAP emission, Ave (ANAP-incorporated TRPM8 [7]; ANAP at L939): 2.11; Shifts_ave (ANAP-incorporated TRPM8 [7]; ANAP incorporation site L939, average shift, menthol activated vs resting state): 2.11 nm; Shifts in emission (ANAP-incorporated TRPM8 [7]; ANAP incorporation site L939, menthol activated vs resting state, single measurement): 2.38 nm and 1.56 nm and 2.39 nm; Emission Peak at menthol activated state (ANAP-incorporated TRPM8 [7]; ANAP incorporation site L939, single measurement): 484.67 nm and 488.02 nm and 485.09 nm; Shifts_ave (ANAP-incorporated TRPM8 [8]): 0.79 nm; Shifts_ave (ANAP-incorporated TRPM8 [9]; [16]): 1.13 nm; Shifts in emission (ANAP-incorporated TRPM8 [9]; [17]): 1.32 nm and 1.2 nm and 0.75 nm and 1.07 nm; Emission Peak at menthol activated state (ANAP-incorporated TRPM8 [9]; single measurement): 487.02 nm and 492.63 nm and 483.01 nm and 479.1 nm and 483.68 nm; Shifts_ave (ANAP-incorporated TRPM8 [10]; [16]): 1.07 nm; Shifts in emission (ANAP-incorporated TRPM8 [10]; [17]): 1.34 nm and 1.13 nm and 1.09 nm and 0.99 nm and 0.8 nm; Emission Peak at menthol activated state (ANAP-incorporated TRPM8 [10]; single measurement): 493.48 nm and 489.7 nm and 490.23 nm and 494.29 nm and 493.18 nm; Shifts in ANAP emission, Ave (ANAP-incorporated TRPM8 [11]; ANAP at T922): -2.55; Shifts_ave (ANAP-incorporated TRPM8 [11]; ANAP incorporation site T922, average shift, menthol activated vs resting state): -2.55 nm; Emission Peak at menthol activated state (ANAP-incorporated TRPM8 [11]; ANAP incorporation site T922, single measurement): 473.38 nm and 482.56 nm and 468.55 nm and 478.75 nm and 477.12 nm; Shifts in ANAP emission, Ave (ANAP-incorporated TRPM8 [12]; ANAP at V791): 2.05; Shifts_ave (ANAP-incorporated TRPM8 [12]; ANAP incorporation site V791, average shift, menthol activated vs resting state): 2.05 nm; Shifts_ave (ANAP-incorporated TRPM8 [13]; [16]): 0.71 nm; Emission Peak at menthol activated state (ANAP-incorporated TRPM8 [13]; single measurement): 481.62 nm and 479.21 nm and 478.64 nm and 484.51 nm and 491.43 nm; Shifts_ave (ANAP-incorporated TRPM8 [14]; average shift): 1.45 nm; Shifts in emission (ANAP-incorporated TRPM8 [14]; single measurement): 1.59 nm and 1.14 nm and 1.76 nm and 1.68 nm and 1.08 nm; Shifts_ave (ANAP-incorporated TRPM8 [15]; [16]): -0.72 nm; Emission Peak at menthol activated state (ANAP-incorporated TRPM8 [15]; single measurement): 483.26 nm and 481.78 nm and 474.51 nm and 486.54 nm
